{"source": "patent US4377587A", "about": "“Arylamine derivatives and use thereof as microbicides” (Ciba-Geigy Corporation, priority 1980, dated 1983)", "key": {"Pythium debaryanum [1]": {"system": "Pythium debaryanum", "experiment": "Action on Pythium debaryanum on sugar beets, (b) after seed dressing application", "format": "in vivo", "settings": "sugar beet, seed dressing 0.06%, 2-3 weeks at c. 20° C.", "protocol": "(§1) Action on Pythium debaryanum on sugar beets\n(b) Action after seed dressing application\nThe fungus is cultivated on carrot chip nutrient solution and added to a mixture of earth and sand. Flower pots are filled with the infected soil and sugar beet seeds which have been treated with the test preparations formulated as seed dressing powders are sown therein (0.06% of one of the compounds of Tables 1 and 2). The pots are then stood in a greenhouse for 2-3 weeks at c. 20° C. The soil is kept uniformly moist by gently spraying it with water. The emergence of the sugar beet plants is ascertained in evaluating the test."}, "[2]": {"experiment": "Volatility: evaporation half-life T50 in an evaporating tube", "format": "physicochemical", "settings": "50° C., stream of air of 20 m/h, relative to T50 of Metalaxyl", "protocol": "(§2) Determination of physico-chemical data\nIn an evaporating tube, the evaporation half-life values T50 of representative fungicides of this invention are determined at 50° C. and in a stream of air of 20 m/h. The values are shown below, relative to the corresponding half-life T50 of Metalaxyl."}, "Podosphaera leucotricha": {"system": "Podosphaera leucotricha", "experiment": "Residual-protective action against Podosphaera leucotricha on apples", "format": "in vivo", "settings": "apple seedlings, spray 0.06% of active ingredient, evaluated 12 days after infection", "protocol": "Residual-protective action against Podosphaera leucotricha on apples\nApple seedlings in the 5-leaf stage are sprayed with a spray mixture (0.06% of active ingredient) prepared from a wettable powder formulation of the active ingredient. After 24 hours the treated plants are infected with a conidia suspension of the fungus and placed in a climatic chamber at 70% relative humidity and 20° C. Evaluation of fungus infestation is made 12 days after infection."}, "Phytophthora infestans [3]": {"system": "Phytophthora infestans", "format": "in vivo, Phytophthora infestans (on tomato plants)", "settings": "tomato, spray 0.06% active ingredient, infested after 24 hours, evaluated after 5 days at 20° C."}, "Venturia inaequalis": {"system": "Venturia inaequalis", "experiment": "Residual-protective action against Venturia inaequalis on apple shoots", "format": "in vivo", "settings": "spray 0.06%, evaluated 15 days after infection", "protocol": "Residual-protective action against Venturia inaequalis on apple shoots\nApple cuttings with 10-20 cm long fresh shoots are sprayed with a spray mixture prepared from a wettable powder formulation of the active ingredient (0.06%). After 24 hours the treated plants are infected with a conidia suspension of the fungus. The plants are then incubated for 5 days at 90-100% relative humidity and stood in a greenhouse for a further 10 days at 20°-24° C. Scab infestation is evaluated 15 days after infection."}, "Pythium debaryanum [4]": {"system": "Pythium debaryanum", "experiment": "Action on Pythium debaryanum on sugar beets, (a) after soil application", "format": "in vivo", "settings": "sugar beet, 20 ppm of active ingredient based on volume of soil, 2-3 weeks at 20°-24° C.", "from_the_text": "as §1\n(a) Action after soil application\nThe fungus is cultivated on carrot chips nutrient solution and added to a mixture of earth and sand. Flower pots are filled with the infected soil, in which sugar beet seeds are then sown. Immediately after sowing, the test preparations formulated as wettable powders are poured in the form of aqueous suspensions over the soil (20 ppm of active ingredient, based on the volume of the soil). The pots are then stood for 2-3 weeks in a greenhouse at 20°-24° C. The soil is kept uniformly moist by gently spraying it with water. The emergence of the sugar beet plants as well as the number of healthy and sick plants are ascertained in evaluating the test."}, "Phytophthora infestans [5]": {"system": "Phytophthora infestans", "format": "in vivo, Phytophthora infestans (on tomato plants)", "settings": "tomato, sprayed 0.06% active ingredient 22 hours after infestation, evaluated 5 days after infestation"}, "Water solubility": {"experiment": "Water solubility", "format": "physicochemical", "settings": "25° C.", "from_the_text": "as §2\n(a) Reduced water solubility"}}}
{"smiles": "CCOCC(=O)N(c1c(C)ccc([N+](=O)[O-])c1C)C(C)C(=O)OC", "note": "(centres unmarked) [Compound 31, N-(1'-methoxycarbonylethyl)-N-ethoxyacetyl-2,6-dimethyl-3-nitroaniline]", "values": [{"measurement": "emergent plants (fully effective against Pythium pathogens), seed dressing application", "setting": "Pythium debaryanum [1]", "result": "over 90%"}, {"measurement": "Multiple of Metalaxyl T50 (evaporation half-life)", "setting": "[2]", "result": 41.8, "unit": "×"}, {"measurement": "fungus attack compared with untreated and infected control seedlings (100% attack)", "setting": "Podosphaera leucotricha", "result": "less than 10%"}, {"measurement": "fungus attack compared with untreated control plants (100% attack), residual-protective", "setting": "Phytophthora infestans [3]", "result": "less than 10%"}, {"measurement": "scab infestation (reduced to)", "setting": "Venturia inaequalis", "result": "10-15%"}, {"measurement": "emergent plants (fully effective against Pythium pathogens), soil application", "setting": "Pythium debaryanum [4]", "result": "over 90%"}, {"measurement": "fungus attack compared with untreated and infected control plants (100% attack), residual curative", "setting": "Phytophthora infestans [5]", "result": "less than 10%"}, {"measurement": "solubility", "setting": "Water solubility", "result": 2500, "unit": "µg/mL"}]}
